Here are results for 15 compounds from patent US5378694A, “Acyl and alkoxy substituted quinolines” (Schering Corporation, priority 1993, dated 1995).

The subject of series [1] is HSV-2, strain MS. Nature of the series: In vivo anti-HSV efficacy, prophylactic guinea pig model of HSV infection. Particulars: 60 mg per kg s.c., T.I.D., 10 days; for Neurological Dysfunction (%): percentage of animals developing loss of bladder/hindlimb control, placebo 66; for MLS (Maximum Lesion Scores): scale of 1 to 4, first dose 24 hours before infection, placebo 2.22. Here is the method:
The in vivo assessment of anti-HSV efficacy was determined in the prophylactic guinea pig model of HSV infection described by Stansberry et al. (1982). Dosing of guinea pigs comprised an initial treatment with test compound given 24 hours prior to virus infection and subsequent administration of the compound every eight hours (T.I.D.) for a total of 10 days. Test compounds were administered subcutaneously in 0.5% buffered methyl cellulose at a dose of 60 mg per kg body weight of the animal. Animals were monitered daily for the development of genital lesions and neurological symptomology, both of which were recorded and compared to the results obtained with parallel groups which received placebo or acyclovir. Efficacy was evaluated for each compound by scoring the ability of the compound to ameliorate genital lesions produced by infection with HSV-2, strain MS, expressed as Maximum Lesson Scores (MLS) on a scale of 1 (least lessions) to 4 (severe lessons).

In series [2] the target is T1, cGMP phosphodiesterase (cGMP-PDE) (Bos taurus, UniProt Q28156).
T1 construct: is a homogeneous enzyme obtained from bovine lung; from tissue; host or cells: bovine lung
Put plainly: Phosphodiesterase inhibition in vitro (cGMP-PDE). The format is biochemical. Particulars: bovine lung cGMP-PDE; 1 μM 3H-cGMP, pH 7.5, 25 minutes, room temperature.

The nature of series [3]: SHR assay, blood pressure in conscious spontaneously hypertensive rats. The note with it: P.O. It is filed as in vivo, rat (spontaneously hypertensive rats. Here is the method:
The ability of the compounds to lower blood pressure can be assessed in vivo in conscious spontaneously hypertensive rats (SHRs). SHR males are purchased from Taconic Farms, Germantown, N.Y. and are approximately 16-18 weeks old when anesthetized with ether. The caudal (ventral tail) artery is cannulated with polyethylene tubing (PE50), and blood pressure and heart rate are recorded as described by Baum, T. et. al., J. Cardiovasc. Pharmacol., Vol 5, pp. 655-667 (1983). Rats are placed into plastic cylindrical cages where they rapidly recover consciousness. Blood pressure and heart rate are allowed to stabilize for approximately 90 minutes prior to administration of the test compound. Compounds are administered orally as solutions or suspensions in 0.4% aqueous methylcellulose vehicle via a feeding needle. The compound or 0.4% aqueous methylcellulose vehicle is given in a volume of 4 ml/kg to SHRs that been fasted overnight. Activity is expressed as the fall in mean blood pressure (MBP) in millimeters of mercury (mm Hg). Compound-induced changes are compared with the changes in an appropriate placebo group.

The nature of series [4]: Compound toxicity assay: inhibition of HeLa cell translation (3H-LEU assay). The format is cell-based. Particulars: human; HeLa cells, cellular translational activity; read-out: CYTOTOXICITY 3H-LEU ASSAY IC50. Here is the method:
HeLa cells were treated with inhibitory compound for 24 hours, after which levels of translational activity were assayed.
For assay of translational activity, HeLa cultures were grown to 80% confluency in 96 well microtiter plates, treated with appropriate concentrations of compound in 2% EMEM during an overnight incubation at 37° C., then rinsed with HBSS and overlaid with […] of 2% EMEM containing 8 μCi of tritiated leucine (^3 H-LEU, 141 Cu/mMol, Amersham Corp., Arlington Heights Ill.). After a 1 hour incubation at 36.5° C., the cells were rinsed twice with phosphate-buffered saline (PBS) and lysed in 400 ul/well of 1 × PBS, 0.5% sodium dodecyl sulphate (SDS). After a 10 min incubation at 36.5° C., the contents of the well were transferred to a well in a Millititer HA microfiltration plate (Millipore Corp., Bedford, Mass.). The TCA-insolubleproteins were precipitated onto the filter disc by a 10 min fixation with 5% TCA, followed by filtration under vacuum and three 10 minute rinses with 95% ethanol. The filters were dried at room temperature, cut from the milltitier plate and transferred to scintillation vials. TCA-precipitable counts were assayed in 5 ml of Scintisol (Isolab, Akron, Ohio). The inhibitory activity of a compound was plotted versus the concentration and an IC50 value (that concentration of the compound required to decrease cellular translational activity by 50%) was derived for each compound.

The test system of series [5] is HSV-2 (strain MS). Put plainly: Transient expression of beta galactosidase in transfected HeLa cells superinfected with HSV-2 (HSV-β-Gal assay). The format is cell-based. The note with it: 24 hours. Here is the method:
HeLa and Vero cell cultures were maintained in Eagles Minimal Essential Medium (EMEM) which was supplemented with glutamine, penicillin, streptomycin and 10% fetal calf serum (10% EMEM). Stock cultures of HSV-2 (strain MS available from ATCC VR-540) were grown in and harvested from Vero cells. Viral stocks were titered in Vero cells according to established procedures.
Plasmid pON^ori- 245 contains the promoter of the HSV-1 thymidine kinase (tk) gene located immediately 5' of the E. coli lac Z gene. In this arrangement, the tk promoter controls transcription from the bacterial gene in transient expression assays. Additionally, an SV40 polyadenylation signal is present at the 3' end of the lac Z gene to allow for the efficient translation of the mRNA in eucaryotic cells. The expression of beta galactosidase in a transient assay using pON 245^ori- is dependent upon superinfection of the transfected cells with HSV. […] For example, see European Patent Application No. 88302149.5 filed Mar. 11, 1988 and published Sep. 14, 1988 as 282,330, the disclosure of which is incorporated herein by reference thereto.
HeLa cells were seeded into 96 well microtiter plates and allowed to grow to 80% confluency (approximately 35000 cells/well). One half microgram of plasmid pON 245^ori- DNA was introduced into the cells of each well by the […] precipitation technique (Grabman and Van der Eb, 1973). Four to six hours later, the cells were rinsed with Hank's Balanced Salt Solution (HBSS), overlaid with 10% EMEM and incubated at 37° C. At 24 hours post-transfection, cells were rinsed, overlaid with 10% EMEM again and re-incubated at 37° C. At 48 hours post-transfection, cells were rinsed and overlaid with either EMEM containing 2% fetal calf serum (2% EMEM), 2% EMEM containing HSV-2 (strain MS, Multiplicity of Infection [moi]=5 pfu/cell) or 2% EMEM containing HSV-2 and the appropriate concentration of the compound to be tested. Twenty-four hours later, the cells were harvested and assayed for beta-galactosidase activity as described below.
All determinations of beta galactosidase activity were performed in 96-well microtiter plates. The intracellular level of beta-galactosidase activity in each well was determined from cell lysates of the monolayer cultures. Aliquots were assayed by incubation in the presence of beta-galactosidase substrate, 4-methylumbelliferyl-β-D-galactoside (MUG, 125 ug/ml, Sigma), for 2 hours. The generation of fluorescent product was quantified on a Microfluor microfluorimeter (Dynatech) after addition of 0.1M glycine, pH 10.3 (Spaete and Mocarski, 1985). The inhibitory activity of a compound was plotted versus the concentration and an IC50 value (the concentration in mcg/ml of compound required to reduce beta-galactosidase expression by 50%) was obtained for each compound tested.

In series [6] the test system is HSV. Particulars: humans; cited from earlier work.
The test system of series [7] is HSV-1. The note with it: against HSV-1; cited from earlier work.
Series [8] relates to herpes virus. Particulars: mammals; cited from earlier work.
Series [9] deals with HSV-2. Particulars: against HSV-2; cited from earlier work.
Setting [10] is: Human alphaherpesvirus 2, moi 5 pfu/cell, read-out: ANTI-HSV ACTIVITY HSV-β-Gal ASSAY IC50.
[11] abbreviates: Human alphaherpesvirus 2, Repeat, moi 5 pfu/cell, read-out: ANTI-HSV ACTIVITY HSV-β-Gal ASSAY IC50 (repeat).

Like-named read-outs stand apart in the source and are kept apart here.

Regarding `Nc1nc2c(ncn2COCCO)c(=O)[nH]1` [Acyclovir, 9-[(2-hydroxyethoxy)methyl]guanine, reference compound], in series [1], the “Neurological Dysfunction (%)” value was 44% and the “MLS (Maximum Lesion Scores)” value is recorded as 1.61.

Broadly, the IC50 is the point on the concentration scale where inhibition reaches its midpoint. For `Cc1cccc2c(O)c(C=O)c(=O)n(Cc3ccccc3)c12` [Formula 1.3], the IC50 is 10 µM in series [2] and 3 mg/L in [5] (setting [10]). Moreover, the “Fall in MBP” value in [3] (25 mpk) was found to be 7 mm Hg. Also, in series [4], the CC50 at 24 h worked out at 29 mg/L.

As to `CCCCCCCn1c(=O)c(C=O)c(O)c2ccccc21` [Formula 1.4], the CC50 at 24 h in series [4] was 32 mg/L. Moreover, the IC50 in series [5] (setting [11]) and in series [5] (setting [10]) was 4 mg/L each time.

For the compound `Cc1ccc2c(c1)c(O)c(C=O)c(=O)n2Cc1ccccc1` [Formula 1.5], the half-inhibitory concentration (IC50) in series [2] stood at 90 µM; in [5] (setting [10]), 4 mg/L. Moreover, the “Fall in MBP” value in [3] (50 mpk) was 40 mm Hg. For the same compound, the CC50 at 24 h in series [4] worked out at 16 mg/L.

On to `O=Cc1c(O)c2cc(Cl)ccc2n(Cc2ccccc2)c1=O` [Formula 1.6], for which the IC50 stood at 17 µM in series [2] and 4 mg/L in series [5] (setting [10]). Besides, the “Fall in MBP” value in series [3] (25 mpk) worked out at 48 mm Hg. The CC50 at 24 h in series [4] was 15 mg/L.

As for `Cn1c(=O)c(C=O)c(O)c2ccccc21` [Formula 1.7], in series [4], the CC50 at 24 h stood at 56 mg/L. Also, the IC50 in [5] (setting [11]) and in [5] (setting [10]) was 7 mg/L each time.

`O=Cc1c(O)c2ccccc2n(Cc2ccccc2)c1=O` [Formula 1.8]: in [4], the CC50 at 24 h stood at 29 mg/L. Further, in series [5] (setting [10]), the IC50 came to 7 mg/L.

With `O=Cc1c(O)c2ccccc2n(-c2ccccc2)c1=O` [Formula 1.9], the IC50 in [2] came out at 18 µM. In series [1], the “Neurological Dysfunction (%)” value is given as 0% and the “MLS (Maximum Lesion Scores)” value was 0.67. For the same compound, in series [4], the CC50 at 24 h is 12 mg/L. For the same compound, the IC50 in series [5] (setting [10]) came to 8 mg/L.

With `O=Cc1c(O)c2cc(OCc3ccccc3)ccc2n(Cc2ccccc2)c1=O` [Formula 1.10], the CC50 at 24 h in [4] is 32 mg/L. Further, in series [5] (setting [10]), the IC50 came out at 10 mg/L.

As to `CCCCCCn1c(=O)c(C=O)c(O)c2ccccc21` [Formula 1.11], in [4], the CC50 at 24 h was 20 mg/L. Moreover, in series [5] (setting [10]), the IC50 was 8 mg/L.

`O=Cc1c(O)c2cc(O)ccc2n(Cc2ccccc2)c1=O` [Formula 1.12]: in series [5] (setting [10]), the IC50 was 13 mg/L.

`COc1ccc(OCCCOCn2c(=O)c(C=O)c(O)c3ccccc32)c(Cl)c1` [Formula 1.14]: in series [5] (setting [10]), the IC50 amounted to 18 mg/L.

On to `O=Cc1c(O)c2ccc(Cl)cc2n(Cc2ccccc2)c1=O` [Formula 1.15], for which the CC50 at 24 h in series [4] is 23 mg/L. The IC50 in series [5] (setting [10]) came out at 5 mg/L.

`CC1(C)C(=O)C(C=O)=C(O)c2ccccc21` [Formula 1.16]: in [4], the CC50 at 24 h worked out at 34 mg/L. The IC50 in series [5] (setting [10]) was 7 mg/L.

As to `CCN(CC)CC(=O)Nc1c(C)cccc1C` [lidocaine, 2-(diethylamino)-N-(2,6-dimethylphenyl)acetamide], the “treatment of HSV oral and genital lesions (in words)” value in series [6] is “particularly effective in the treatment of HSV oral and genital lesions in humans”. Also, the “antiviral activity in cell culture (in words)” value in series [7] was “antiviral agent in cell culture against HSV-1 and HSV-2”; in [9], “antiviral agent in cell culture against HSV-1 and HSV-2”. Further, in [8], the “treatment of herpes virus infections (in words)” value is “able to treat herpes virus infections of mammals”.
